pIC50: −log10 of the molar value.

Among the data in patent US7002022B2, “N-Aryl (thio) anthranilic acid amide derivatives, their preparation and their use as VEGF” (Novartis AG, priority 1998, dated 2006) are melting point and IC50 values, retold here.

The target of series [1] is T1, Flt-1 VEGF-receptor tyrosine kinase (Homo sapiens, UniProt P17948).
T1 construct: 10 ng of the kinase domain of Flt-1
T1 sequence (P17948 827-1158 limits assumed): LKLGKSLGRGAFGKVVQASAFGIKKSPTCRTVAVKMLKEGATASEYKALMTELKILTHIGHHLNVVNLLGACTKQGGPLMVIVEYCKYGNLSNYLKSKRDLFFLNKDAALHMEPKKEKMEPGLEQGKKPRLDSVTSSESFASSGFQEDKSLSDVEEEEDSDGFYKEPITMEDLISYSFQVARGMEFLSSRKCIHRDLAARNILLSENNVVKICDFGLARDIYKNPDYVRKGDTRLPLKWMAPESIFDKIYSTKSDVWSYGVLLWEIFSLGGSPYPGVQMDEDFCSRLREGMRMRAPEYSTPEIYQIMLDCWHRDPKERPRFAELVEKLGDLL
Briefly: Test for activity against Flt-1 VEGF-receptor tyrosine kinase. The series is classed as biochemical. Conditions: kinase domain of Flt-1, poly(Glu,Tyr) 4:1, 8 μM [33P]-ATP, 10 minutes at room temperature. The method, then: Test for activity against VEGF-receptor tyrosine kinase. The test is conducted using Flt-1 VEGF-receptor tyrosine kinase. […] The reaction is then terminated by the addition of 10 μl 0.25 M ethylenediaminetetraacetate (EDTA) pH 7. Using a multichannel dispenser (LAB SYSTEMS, USA), an aliquot of 20 μl is applied to a PVDF (=polyvinyl difluoride) Immobilon P membrane (Millipore, USA), through a Millipore microtiter filter manifold and connected to a vacuum. Following complete elimination of the liquid, the membrane is washed 4 times successively in a bath containing 0.5% phosphoric acid (H3PO4) and once with ethanol, incubated for 10 minutes each time while shaking, then mounted in a Hewlett Packard TopCount Manifold and the radioactivity measured after the addition of 10 μl Microscint® (β-scintillation counter liquid).
The test is conducted using Flt-1 VEGF-receptor tyrosine kinase, as described hereinabove.

For orientation: melting point means the temperature, or range, at which the solid turns liquid. As to `O=C(Nc1ccccc1)c1ccccc1NCc1ccncc1` [Example 3, 2-[(4-Pyridyl)methyl]amino-N-phenylbenzamide], the melting point is 160 to 161 °C. In general, pIC50 refers to the IC50 on a negative log10 scale, so that one unit is a factor of ten. The low end stands for a high IC50, the high end for a low IC50. Consider `Cc1ccc(NC(=O)c2ccccc2NCc2ccncc2)cc1` [Example 5, 2-[(4-Pyridyl)methyl]amino-N-(4-methylphenyl)benzamide], for which, in series [1], the pIC50 was 6.59. For the compound `O=C(Nc1ccc(Cl)c(C(F)(F)F)c1)c1ccccc1NCc1ccncc1` [Example 7, 2-[(4-Pyridyl)methyl]amino-N-[4-chloro-3-(trifluoromethyl)phenyl]benzamide], the melting point was 162 to 172 °C. Further, the pIC50 in series [1] was 6.25.

Compound `O=C(Nc1cc(Cl)cc(C(F)(F)F)c1)c1ccccc1NCc1ccncc1` [Example 8, 2-[(4-Pyridyl)methyl]amino-N-[3-chloro-5-(trifluoromethyl)phenyl]benzamide] yielded a melting point of 190 to 194 °C. The same measure, in the same setting: the figure for `O=C(Nc1ccc(F)c(C(F)(F)F)c1)c1ccccc1NCc1ccncc1` [Example 9, 2-[(4-Pyridyl)methyl]amino-N-[4-fluoro-3-(trifluoromethyl)phenyl]benzamide] is 183 to 185 °C; for `O=C(Nc1cc(F)cc(C(F)(F)F)c1)c1ccccc1NCc1ccncc1` [Example 10, 2-[(4-Pyridyl)methyl]amino-N-[3-fluoro-5-(trifluoromethyl)phenyl]benzamide] it is 196 to 197 °C; for `COc1cc(NC(=O)c2ccccc2NCc2ccncc2)cc(C(F)(F)F)c1` [Example 13, 2-[(4-Pyridyl)methyl]amino-N-[3-methoxy-5-(trifluoromethyl)phenyl]benzamide] it is 134 to 136 °C. Turning to `CC(C)(C)c1cccc(NC(=O)c2ccccc2NCc2ccncc2)c1` [Example 15, 2-[(4-Pyridyl)methyl]amino-N-[3-(1,1-dimethylethyl)phenyl]benzamide], the melting point fell in the range of 144 to 147 °C.

For `N#Cc1cccc(NC(=O)c2ccccc2NCc2ccncc2)c1` [Example 16, 2-[(4-Pyridyl)methyl]amino-N-(3-cyanophenyl)benzamide], the melting point lay in the range of 157 to 160 °C.

For `CC(=O)Nc1cccc(NC(=O)c2ccccc2NCc2ccncc2)c1` [Example 18, 2-[(4-Pyridyl)methyl]amino-N-(3-acetylaminophenyl)benzamide], the melting point fell in the range of 157 to 158 °C. `NC(=O)Nc1cccc(NC(=O)c2ccccc2NCc2ccncc2)c1` [Example 19, 2-[(4-Pyridyl)methyl]amino-N-[3-[(aminocarbonyl)amino]phenyl]benzamide] returned a melting point of 200 to 202 °C. Still for that read-out and setting: for `CN(C)c1cccc(NC(=O)c2ccccc2NCc2ccncc2)c1` [Example 20, 2-[(4-Pyridyl)methyl]amino-N-[3-(dimethylamino)phenyl]benzamide] the value was 152 to 154 °C.

With `COc1ccc(NCc2ccncc2)c(C(=O)Nc2cccc(C(F)(F)F)c2)c1` [Example 21, 5-Methoxy-2-[(4-pyridyl)methyl]amino-N-[3-(trifluoromethyl)phenyl]benzamide], the melting point was in the range of 175 to 178 °C. Still for that read-out and setting: the figure for `O=C(Nc1cccc(C(F)(F)F)c1)c1cc(F)c(F)cc1NCc1ccncc1` [Example 23, 4,5-Difluoro-2-[(4-pyridyl)methyl]amino-N-[3-(trifluoromethyl)phenyl]benzamide] is 175 to 178 °C; for `CN(C(=O)c1ccccc1NCc1ccncc1)c1cccc(C(F)(F)F)c1` [Example 24, 2-[(4-Pyridyl)methyl]amino-N-methyl-N-[3-(trifluoromethyl)phenyl]benzamide] it is 127 to 128 °C.

For the compound `CC(C)(C)c1ccc(NC(=O)c2ccccc2NCc2ccncc2)cc1` [Example 27, 2-[(4-Pyridyl)methyl]amino-N-[4-(1,1-dimethylethyl)phenyl]benzamide], the melting point was 168 to 170 °C. Same read-out and setting: for `O=C(Nc1cccc(Cl)c1)c1ccccc1NCc1ccncc1` [Example 28, 2-[(4-Pyridyl)methyl]amino-N-(3-chlorophenyl)benzamide] the value was 131 to 133 °C; for `O=C(Nc1cccc(Br)c1)c1ccccc1NCc1ccncc1` [Example 29, 2-[(4-Pyridyl)methyl]amino-N-(3-bromophenyl)benzamide], 156 to 159 °C; for `Cc1cccc(NC(=O)c2ccccc2NCc2ccncc2)c1` [Example 30, 2-[(4-Pyridyl)methyl]amino-N-(3-methylphenyl)benzamide], 139 to 140 °C. In the case of `NC(=O)c1cccc(NC(=O)c2ccccc2NCc2ccncc2)c1` [Example 32, 2-[(4-Pyridyl)methyl]amino-N-[3-(aminocarbonyl)phenyl]benzamide], the melting point was in the range of 195 to 203 °C. On the same count and under the same terms, the figure for `Cc1ccc(NC(=O)c2c(C)cccc2NCc2ccncc2)cc1` [Example 33, 2-[(4-Pyridyl)methyl]amino-N-(4-methylphenyl)-6-methylbenzamide] is 162 to 163 °C. The same measure, in the same setting: the figure for `O=C(Nc1cccc(C(F)(F)F)c1)c1ccccc1NCc1cccnc1` [Example 34, 2-[(3-Pyridyl)methyl]amino-N-[3-(trifluoromethyl)phenyl]benzamide] is 140 to 142 °C. The same measure, in the same setting: the figure for `O=C(Nc1cccc(C(F)(F)F)c1)c1ccccc1NCc1ccnc2ccccc12` [Example 35, 2-[(4-Quinolinyl)methyl]amino-N-[3-(trifluoromethyl)phenyl]benzamide] is 191 to 193 °C; for `O=C(Nc1cccc(C(F)(F)F)c1)c1ccccc1NCc1cccc2ncccc12` [Example 36, 2-[(5-Quinolinyl)methyl]amino-N-[3-(trifluoromethyl)phenyl]benzamide] it is 176 to 178 °C. Turning to `O=C(Nc1ccc(Cl)cc1)c1ccccc1NCc1ccnc2ccccc12` [Example 39, 2-[(4-Quinolinyl)methyl]amino-N-(4chlorophenyl)benzamide], the melting point lay in the range of 178 to 209 °C.

On to `O=C(Nc1ccc(Cl)cc1)c1ccccc1NCc1ncc[nH]1` [Example 40, 2-[(2-Imidazolyl)methyl]amino-N-(4chlorophenyl)benzamide], for which the melting point fell in the range of 181 to 184 °C. Still for that read-out and setting: the figure for `O=C(Nc1cccc(C(F)(F)F)c1)c1ccccc1NCCc1cccnc1` [Example 42, 2-[2-(3-Pyridyl)ethyl]amino-N-[3-(trifluoromethyl)phenyl]benzamide] is 102 to 103 °C; for `Cc1cccc(NCc2ccncc2)c1C(=O)Nc1ccc(Cl)cc1` [Example 47, 6-methyl-2-[(4-pyridyl)methyl]amino-N-(4-chlorophenyl)benzamide] it is 190 °C. Consider `O=C(Nc1ccc(Cl)cc1)c1c(Cl)cccc1NCc1ccncc1` [Example 48, 6-chloro-2-[(4-pyridyl)methyl]amino-N-(4-chlorophenyl)benzamide], for which the melting point lay in the range of 183 to 185 °C.

In turn, `O=C(Nc1ccc2cccc(O)c2c1)c1ccccc1NCc1ccncc1` [Example 54, 2-[(4-pyridyl)methyl]amino-N-(8-hydroxy-2-naphthyl)benzamide] returned a melting point of 235 °C. On the same count and under the same terms, the figure for `O=C(Nc1ccc(Cl)cc1)c1ccc(Cl)cc1NCc1ccncc1` [Example 55, 4-chloro-2-[(4-pyridyl)methyl]amino-N-(4-chlorophenyl)benzamide] is 186 °C.

Take `Cc1ccc(NCc2ccncc2)c(C(=O)Nc2ccc(Cl)cc2)c1` [Example 56, 5-methyl-2-[(4-pyridyl)methyl]amino-N-(4-chlorophenyl)benzamide]: the melting point came to 127 °C. The same measure, in the same setting: the figure for `O=C(Nc1ccc(Cl)cc1)c1cc(Cl)ccc1NCc1ccncc1` [Example 59, 5-chloro-2-[(4-pyridyl)methyl]amino-N-(4-chlorophenyl)benzamide] is 206 to 207 °C; for `COc1cc(NC(=O)c2ccccc2NCc2ccncc2)cc2ccccc12` [Example 64, 2-[(4-pyridyl)methyl]amino-N-(4-methoxy-2-naphthyl)benzamide] it is 152 to 154 °C; for `O=C(Nc1cc2ccccc2cc1Br)c1ccccc1NCc1ccncc1` [Example 65, 2-[(4-pyridyl)methyl]amino-N-(3-bromo-2-naphthyl)benzamide] it is 130 to 132 °C. Still for that read-out and setting: the figure for `CC(C)OC(=O)c1ccc(NC(=O)c2ccccc2NCc2ccncc2)cc1` [Example 66, 2-[(4-pyridyl)methyl]amino-N-[4-(isopropoxycarbonyl)phenyl]benzamide] is 70 °C.

As to `CC(C)NC(=O)c1ccc(NC(=O)c2ccccc2NCc2ccncc2)cc1` [Example 68, 2-[(4-pyridyl)methyl]amino-N-[4-(isopropylcarbamoyl)phenyl]benzamide], the melting point was 79 °C. Same read-out and setting: the figure for `Cc1ccc(NC(=O)c2ccccc2NCc2ccncc2)cc1Cl` [Example 69, 2-[(4-pyridyl)methyl]amino-N-(3-chloro-4-methylphenyl)benzamide] is 143 °C. The same measure, in the same setting: the figure for `Cc1ccccc1NC(=O)c1ccccc1NCc1ccncc1` [Example 70, 2-[(4-pyridyl)methyl]amino-N-(2-methylphenyl)benzamide] is 143 °C.
